Assay results as given in patent publication US6716831B1, “2,4-diamino-pyrimidine deprivatives having anti-cell proliferative activity” (AstraZeneca AB, priority 1999, dated 2004).

Biological target: T1, human Focal Adhesion Kinase (FAK) (Homo sapiens, UniProt Q05397)
T1 construct: FAK (full length human cDNA described by Andre et al); 6-histidine tag (N); made in house; host or cells: Sf21 insect cells (baculovirus, pFastbac 1)
Experiment: FAK3 Kinase Inhibition Assay
Type: biochemical
Details: in vitro enzyme assay, Poly (Glu, Ala, Tyr) substrate; read-out: FAK inhibitory activity IC50
Source text: FAK3 Kinase Inhibition Assay
This assay determines the ability of a test compound to inhibit tyrosine kinase activity of human Focal Adhesion Kinase (FAK).
DNA encoding FAK is obtained by total gene synthesis (Edwards M, International Biotechnology Lab 5(3), 19-25, 1987) or by cloning. These are then expressed in a suitable expression system to obtain polypeptide with tyrosine kinase activity.
Active FAK protein has been previously expressed in a baculovirus system using a similar N-terminal 6-histidine tag (Protein Expression And Purification, 1996, 7: 12-18). The human FAK cDNA was cloned into the baculovirus transplacement vector, pFastbac 1 (Life Technologies), and the recombinant construct was co-transfected into insect cells (for example Spodoptera frugiperda 21(Sf21)) with viral DNA to prepare recombinant baculovirus (details of the methods for the assembly of recombinant DNA molecules and the preparation and use of recombinant baculovirus can be found in standard texts for example Sambrook et al, 1989, Molecular cloning—A Laboratory Manual, 2nd edition, Cold Spring Harbour Laboratory Press and O'Reilly et al, 1992, Baculovirus Expression Vectors—A Laboratory Manual, W.H. Freeman and Co, New York. Details specific to the use of the pFastbac (‘Bac to Bac’) system are provided in Anderson et al., 1995, FOCUS (Life Technologies Bulletin Magazine), 17, p53.) […]

T1 sequence (Q05397 whole entry): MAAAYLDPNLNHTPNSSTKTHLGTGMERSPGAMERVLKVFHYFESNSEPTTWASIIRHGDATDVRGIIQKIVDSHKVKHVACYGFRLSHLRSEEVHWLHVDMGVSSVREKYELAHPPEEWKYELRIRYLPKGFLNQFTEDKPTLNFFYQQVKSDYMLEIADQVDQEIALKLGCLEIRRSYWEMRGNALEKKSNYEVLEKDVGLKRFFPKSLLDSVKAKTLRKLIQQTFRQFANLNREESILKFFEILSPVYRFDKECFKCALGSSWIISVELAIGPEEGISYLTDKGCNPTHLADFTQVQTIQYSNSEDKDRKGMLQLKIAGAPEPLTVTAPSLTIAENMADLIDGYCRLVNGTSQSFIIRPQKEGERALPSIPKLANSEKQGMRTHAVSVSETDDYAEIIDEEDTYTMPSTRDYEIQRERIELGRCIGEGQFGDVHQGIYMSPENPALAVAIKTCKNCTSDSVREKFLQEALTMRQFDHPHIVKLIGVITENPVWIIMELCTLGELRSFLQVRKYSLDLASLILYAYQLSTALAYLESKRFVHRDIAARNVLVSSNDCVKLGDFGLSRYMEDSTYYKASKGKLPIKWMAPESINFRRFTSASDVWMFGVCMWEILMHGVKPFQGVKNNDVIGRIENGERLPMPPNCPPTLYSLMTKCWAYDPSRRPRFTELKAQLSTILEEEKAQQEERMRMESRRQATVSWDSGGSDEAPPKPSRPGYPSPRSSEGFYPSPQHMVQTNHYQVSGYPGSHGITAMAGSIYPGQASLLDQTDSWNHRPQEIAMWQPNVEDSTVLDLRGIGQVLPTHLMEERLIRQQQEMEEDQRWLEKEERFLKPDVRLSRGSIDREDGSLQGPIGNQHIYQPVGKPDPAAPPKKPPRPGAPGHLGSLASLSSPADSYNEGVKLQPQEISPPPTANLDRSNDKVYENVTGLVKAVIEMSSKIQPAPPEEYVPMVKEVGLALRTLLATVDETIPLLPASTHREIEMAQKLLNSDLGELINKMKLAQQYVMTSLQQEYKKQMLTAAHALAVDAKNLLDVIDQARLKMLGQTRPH

- IC50: 553 nM
Structure (SMILES): CN(C)CC(O)COc1ccc(Nc2nccc(N3CCc4cc(Br)ccc43)n2)cc1 (stereo not shown) [Example 3]
